In publication PMC4920673, “Nitroimidazole carboxamides as antiparasitic agents targeting Giardia lamblia, Entamoeba histolytica and Trichomonas vaginalis” (European Journal of Medicinal Chemistry, 2016):
Converted amounts (≈) assume the structure as drawn. Like-named read-outs stand apart in the source and are kept apart here.

Legend:
HEK293 cells = assay: Resazurin cytotoxicity assay, HEK293; assay type: cell-based, Human; settings: for Selectivity index (CC50/EC50): HEK293 CC50 / G. lamblia WB EC50
Summary of the method: (§1)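 Cells pre-cultured 24 h in DMEM/10% FBS at 37 °C, then exposed 24 h to compound dilution series (top 100 μM). Viability by 5 μM resazurin, 2 h, fluorescence 560/590 nm; 1% Triton X-100 as lysis control; CC50 from curve fitting.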

G. lamblia WB (MtzS) = assay: ATP-bioluminescence growth/survival EC50 assay, G. lamblia WB; settings: for S.I (CC50/EC50): average cytotoxicity against HEK293 and HepG2 / G. lamblia WB activity
Description: (§2) Compounds were screened for antiparasitic activity using an ATP-bioluminescence based assay for cell growth and survival, [24]. […] Viable cell numbers were determined in triplicate using the CellTiter-Glo Luminescent Cell Viability Assay.

[1] = tested on: C. difficile 630 (ATCC BAA-1382); assay: Broth microdilution MIC assay, C. difficile 630; assay type: cell-based, Clostridium difficile; settings: strain 630, MtzS, median of n = 4; for MIC: Clostridioides difficile, ATCCBAA1382, read-out: MIC C. difficile 630
Summary of the method: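 Compounds two-fold serially diluted against overnight anaerobic BHIS cultures of the strain, following CLSI methods modified in broth and inoculum for C. difficile. Plates incubated 24 h at 37 °C; MIC is the lowest concentration without visible growth, median reported with range.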

E. histolytica HM1:IMSS = assay: ATP-bioluminescence growth/survival EC50 assay, E. histolytica; assay type: cell-based, Entamoeba histolytica
Description: as §2

[2] = tested on: C. difficile NAP1/027 (ATCC BAA-1803); assay: Broth microdilution MIC assay, C. difficile NAP1/027; assay type: cell-based, Clostridium difficile; settings: strain NAP1/027; for MIC: Clostridioides difficile, ATCCBAA1803
Summary of the method: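 Strains grown anaerobically in BHIS at 37 °C overnight; compounds two-fold serially diluted (64 to 0.03 μg/mL) in pre-reduced medium under anaerobic atmosphere (5% H2, 10% CO2, 85% N2). Plates incubated 24 h at 37 °C; MIC taken as lowest concentration without visible growth, median of replicates reported.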

HepG2 cells = assay: Resazurin cytotoxicity assay, HepG2; assay type: cell-based, Human; settings: for S.I (CC50/EC50), second value of a split cell: HepG2 CC50 / G. lamblia WB EC50
Summary of the method: as §1

[3] = Resazurin cytotoxicity assay, HEK293; assay type: cell-based, Human; settings: human, 24 h
Summary of the method: as §1

[4] = Metabolic stability in liver microsomes; assay type: in vitro ADME, human; settings: 5 μM, human liver microsomes 1 mg/mL, NADPH
Description: Metabolic stability studies were performed with human liver microsomes (HMMC-PL, Lot# PL050B-B, Thermo Fisher Scientific USA) with test compound (5 μM) degradation monitored by LC/MS/MS analysis. Stock solutions (2.5 mM) of the test compounds were prepared in DMSO. […] The reaction was initiated by addition of NADPH solution (cofactor) in potassium phosphate buffer (final concentration 1 mM). Aliquots (180 μL) from the reaction mixture were withdrawn (t = 0, 10, 30, 60 and 120 min) and quenched by adding ice-cold stop solution (540 μL) comprising 0.5 μM carbutamide internal standard in acetonitrile: methanol: formic acid (1: 1: 0.001). Reaction samples were incubated at 4 °C for 30 min, centrifuged at 14,000 × g for 8 min and the clear supernatant was transferred to a vial for LC/MS/MS analysis. The percentage of compound metabolised at different times was calculated as a percentage of the levels at the start of incubation (t = 0 min sample). Matrix blank was also prepared as a control. […] LC/MS/MS parameters are detailed in the supplementary information (Supplementary Table 1).

G. lamblia 713M3 (MtzR) = assay: ATP-bioluminescence growth/survival EC50 assay, G. lamblia 713M3; assay type: cell-based, Giardia lamblia
Description: as §2

T. vaginalis F1623 = assay: ATP-bioluminescence growth/survival EC50 assay, T. vaginalis; assay type: cell-based, Trichomonas vaginalis
Description: as §2

[5] = Plasma protein binding by ultrafiltration; assay type: in vitro ADME; settings: human, pooled human plasma (100%), 5 μM, 100% human plasma, 37 °C, 30 min, ultrafiltration; for fraction unbound at 0.5 h, 5 µM: read-out: Plasma protein binding (% bound) (converted)
Description: Plasma Protein Binding (PPB) was performed using an Ultrafiltration method, [28]. […] Samples were incubated at […] for 30 min, then centrifuged at 14,000 × g for 8 min, with the clear supernatant transferred to a vial for LC/MS/MS analysis. […] The fraction of unbound compound was calculated by determining the concentration of the filtered sample and the concentration of unfiltered sample. […] LC/MS/MS parameters are detailed in the supplementary information (Supplementary Table 1).

[6] = Resazurin cytotoxicity assay, HepG2; assay type: cell-based, Human; settings: human, 24 h
Summary of the method: as §1

[7] = read-out: EC50 G. lamblia WB, MtzS strain WB, minimum n = 3
[8] = MtzS, minimum n = 3, read-out: EC50 E. histolytica HM1:IMSS
[9] = HEK293 cells, highest concentration 100 μM, n = 3, read-out: CC50 HEK 293
[10] = Giardia duodenalis, read-out: EC50 G. lamblia WB, MtzS strain WB, minimum n = 3
[11] = Giardia duodenalis, read-out: pEC50 ± SE G. lamblia WB, MtzS strain WB (converted)
[12] = Giardia duodenalis, read-out: EC50 G. lamblia 713M3, MtzR strain 713M3, minimum n = 3
[13] = Giardia duodenalis, read-out: pEC50 ± SE G. lamblia 713M3, MtzR strain 713M3 (converted)
[14] = Trichomonas vaginalis, read-out: EC50 T. vaginalis F1623, MtzS, minimum n = 3
[15] = Trichomonas vaginalis, read-out: pEC50 ± SE T. vaginalis F1623, MtzS (converted)
[16] = Entamoeba histolytica, read-out: EC50 E. histolytica HM1:IMSS
[17] = Entamoeba histolytica, read-out: pEC50 ± SE E. histolytica HM1:IMSS (converted)
[18] = HepG2 cells, highest concentration 100 μM, n = 3, read-out: CC50 Hep G2

Row | Molecule | CC50 (HEK293 cells) [µM] | pEC50 ± SE G. lamblia WB (G. lamblia WB (MtzS); MtzS strain WB) | S.I (CC50/EC50) (G. lamblia WB (MtzS)) | EC50 (G. lamblia WB (MtzS); [7]) [µM] | MIC C. difficile 630 [1] [µg/mL] | pEC50 ± SE E. histolytica HM1:IMSS (E. histolytica HM1:IMSS; MtzS) | EC50 (E. histolytica HM1:IMSS; [8]) [µM] | MIC C. difficile NAP1/027 [2] [µg/mL] | CC50 (HepG2 cells) [µM] | CC50 at 24 h [3, 9] [µM] | EC50 (G. lamblia WB (MtzS); [10]) [µM] | EC50 (G. lamblia WB (MtzS); [11]) [µM] | EC50 (G. lamblia 713M3 (MtzR); [12]) [µM] | EC50 (G. lamblia 713M3 (MtzR); [13]) [µM] | EC50 (T. vaginalis F1623; [14]) [µM] | EC50 (T. vaginalis F1623; [15]) [µM] | MIC [1] [µg/mL] | EC50 (E. histolytica HM1:IMSS; [16]) [µM] | EC50 (E. histolytica HM1:IMSS; [17]) [µM] | MIC [2] [µg/mL] | also measured
1 | 1-(cyclohexylmethyl)-4-nitro-1H-imidazole-2-carboxamide [Compound 13g] | > 100 | 5.30 ± 0.06 | >20 | 5 | >64 | < 4.3 | > 50 | >64 | > 100 | – | – | – | – | – | – | – | – | – | – | – | –
2 | 1-(cyclopropylmethyl)-4-nitro-1H-imidazole-2-carboxamide [Compound 13f] | > 100 | < 4.3 | – | > 50 | >64 | < 4.3 | > 50 | >64 | > 100 | – | – | – | – | – | – | – | – | – | – | – | –
3 | Cn1c([N+](=O)[O-])cnc1C(=O)NCc1ccc(F)cc1 [Compound 8a, N-(4-fluorobenzyl)-1-methyl-5-nitro-1H-imidazole-2-carboxamide] | – | – | >29 | – | – | – | – | – | – | > 100 | 3.5 | 3.47 | 13 | 12.9 | 5.2 | 5.25 | > 64 | 9.7 | 9.77 | > 64 | Microsome stability (% remaining at 2 h) [4]: 88 % remaining; fraction unbound at 30 min, 5 μM ([5]; read-out: Plasma protein binding (% bound)): ≤ 0.06; fraction unbound at 0.5 h, 5 µM [5]: 0.05; CC50 at 24 h [6, 18]: > 100 µM
4 | Cn1c([N+](=O)[O-])cnc1C(=O)NCc1cccc(OC(F)(F)F)c1 [Compound 8c, 1-methyl-5-nitro-N-(3-(trifluoromethoxy)benzyl)-1H-imidazole-2-carboxamide] | > 100 | 5.51 ± 0.02 | >32 | 3.1 | 32 to 64 | 4.77 ± 0.02 | 17 | 64 (≈ 186 µM) | > 100 | – | – | – | – | – | – | – | – | – | – | – | pEC50 ± SE G. lamblia 713M3 (G. lamblia 713M3 (MtzR); MtzR strain 713M3): 5.84 ± 0.69; EC50 (G. lamblia 713M3 (MtzR); MtzR strain 713M3, minimum n = 3, read-out: EC50 G. lamblia 713M3): 1.5 µM; pEC50 ± SE T. vaginalis F1623 (T. vaginalis F1623; MtzS): 5.09 ± 0.09; EC50 (T. vaginalis F1623; MtzS, minimum n = 3, read-out: EC50 T. vaginalis F1623): 8.1 µM
5 | O=C(NCc1ccc(OC(F)(F)F)cc1)c1ncc([N+](=O)[O-])[nH]1 [Compound 12b, 5-nitro-N-(4-(trifluoromethoxy)benzyl)-1H-imidazole-2-carboxamide] | – | – | – | – | – | – | – | – | – | – | 0.2 | 0.245 | 2.5 | 2.51 | 2.2 | 2.24 | 16 (≈ 48.5 µM) | 4.5 | 4.47 | 8 to 16 (≈ 24.2 to 48.5 µM) | CC50 at 24 h ([3]; highest concentration 100 μM, n = 3, read-out: CC50 HEK 293): > 100 µM; Selectivity index (CC50/EC50) (HEK293 cells): > 500; S.I (CC50/EC50), second value of a split cell (HepG2 cells): 465; CC50 at 24 h [6, 18]: 93 µM; CC50 at 24 h ([6]; HepG2 cells, read-out: pCC50 ± SE Hep G2 (converted)): 93.3 µM
6 | O=C(c1ncc([N+](=O)[O-])[nH]1)N1CCOCC1 [Compound 12h, Morpholino(5-nitro-1H-imidazol-2-yl)methanone] | – | – | >11 | – | – | – | – | – | – | > 100 | 8.8 | 8.71 | > 20 | > 20 | 2.9 | 2.88 | 2 (≈ 8.84 µM) | 5.1 | 5.13 | 2 (≈ 8.84 µM) | Microsome stability (% remaining at 2 h) [4]: 100 % remaining; fraction unbound at 0.5 h, 5 µM [5]: 0.22; CC50 at 24 h [6, 18]: > 100 µM
7 | O=C(NO)c1nc([N+](=O)[O-])cn1Cc1ccc(OC(F)(F)F)cc1 [Compound 14d, N-hydroxy-4-nitro-1-(4-(trifluoromethoxy)benzyl)-1H-imidazole-2-carboxamide] | – | – | – | – | – | – | – | – | – | 36 | 5.1 | 5.13 | – | – | – | – | 16 (≈ 46.2 µM) | 10 | 10 | 16 (≈ 46.2 µM) | CC50 at 24 h ([3]; HEK293 cells, read-out: pCC50 ± SE HEK293 (converted)): 36.3 µM; Selectivity index (CC50/EC50) (HEK293 cells): 7; S.I (CC50/EC50), second value of a split cell (HepG2 cells): > 20; CC50 at 24 h ([6]; highest concentration 100 μM, n = 3, read-out: CC50 Hep G2): > 100 µM
